Assay results published in US10874743B2, “IRAK degraders and uses thereof” (Kymera Therapeutics, Inc., priority 2017, dated 2020).

Target: T1, IRAK4 (Homo sapiens, UniProt Q9NWZ3)
T1 sequence (Q9NWZ3 1-460): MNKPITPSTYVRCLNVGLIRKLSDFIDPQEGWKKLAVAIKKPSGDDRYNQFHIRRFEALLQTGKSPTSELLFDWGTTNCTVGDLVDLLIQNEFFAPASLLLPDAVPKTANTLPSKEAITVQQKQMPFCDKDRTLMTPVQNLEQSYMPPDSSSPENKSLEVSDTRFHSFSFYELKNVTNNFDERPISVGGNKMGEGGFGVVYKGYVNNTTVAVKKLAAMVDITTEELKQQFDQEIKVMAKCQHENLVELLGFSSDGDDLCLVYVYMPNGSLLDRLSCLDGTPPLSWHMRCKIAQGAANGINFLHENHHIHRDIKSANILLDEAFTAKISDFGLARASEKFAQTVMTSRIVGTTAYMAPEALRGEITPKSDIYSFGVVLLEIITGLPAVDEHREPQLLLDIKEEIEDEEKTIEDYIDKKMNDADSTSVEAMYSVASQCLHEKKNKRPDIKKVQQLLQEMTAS
Test: OCI-LY-10 degradation assay (western blot, % IRAK4 degraded after 4 hours)
Format: cell-based
Set-up: endogenous in cells; host or cells: OCI-LY10
Settings: OCI-LY10 cells; for OCI-LY10 % IRAK4 Degradation: IRAK4 degraded after 4 hours, western blot; for OCI-LY10 % IRAK4 Degradation (0.01 uM) / OCI-LY10 % IRAK4 Degradation (0.1 uM) / OCI-LY10 % IRAK4 Degradation (1 uM): 4 hours; for OCI-LY10 % IRAK4 Degradation (0.01 uM): 0.01 uM compound; for OCI-LY10 % IRAK4 Degradation (0.1 uM): 0.1 uM compound; for OCI-LY10 % IRAK4 Degradation (1 uM): 1 uM compound
How it was run: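 OCI-LY10 cells (RPMI-1640, 20% FBS, 55 μM 2-ME) treated with compound at 0.003-10 μM final for 4 h at 37° C, then lysed in RIPA buffer. IRAK4 level read by fluorescent western blot (20-25 μg protein) and binned as % degraded: A >50%, B >20-50%, C <20%.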

Row | OCI-LY10 % IRAK4 Degradation | OCI-LY10 % IRAK4 Degradation (0.01 uM) | OCI-LY10 % IRAK4 Degradation (0.1 uM) | OCI-LY10 % IRAK4 Degradation (1 uM) | SMILES
1 | C (<20% degradation) |  |  |  | CC(C)(OCCOCCOCCOCCOCCNc1cccc2c1C(=O)N(C1CCC(=O)NC1=O)C2=O)C(F)CNC(=O)c1cnc(Nc2ncc(C#N)cc2F)cc1NC1CC1 (stereo not shown) [I-69]
2 | C (<20% degradation) |  |  |  | NC(=O)c1nn(-c2ccc(C(=O)NCC#CC#CCCNc3cccc4c3C(=O)N(C3CCC(=O)NC3=O)C4=O)cc2)cc1NC(=O)c1coc(-c2ccnc(NCC(F)(F)F)c2)n1 (stereo not shown) [I-178, N-[3-carbamoyl-1-[4-[7-[[2-(2,6-dioxo-3-piperidyl)-1,3-dioxo-isoindolin-4-yl]amino]hepta-2,4-diynylcarbamoyl]phenyl]pyrazol-4-yl]-2-[2-(2,2,2-trifluoroethylamino)-4-pyridyl]oxazole-4-carboxamide]
3 |  | B (>20-50% degradation) | A (>50% degradation) | A (>50% degradation) | O=C1CCC(N2C(=O)c3cccc(NCCOCCN4CCO[C@@H](CNC(=O)c5ccc(-n6cc(NC(=O)c7coc(-c8ccnc(NCC9CC9)c8)n7)c(C(F)F)n6)cc5)C4)c3C2=O)C(=O)N1 (stereo partly shown) [I-247]
4 | C (<20% degradation) |  |  |  | N#Cc1cnc2c(cnn2-c2cc(NC3CC3)c(C(=O)N[C@H]3C[C@H](COCCOCCOCCNc4cccc5c4C(=O)N(C4CCC(=O)NC4=O)C5=O)C3)cn2)c1 (stereo partly shown) [I-34]
5 | A (>50% degradation) |  |  |  | NC(=O)c1nn(-c2ccc(C(=O)NCC3CN(CCOCCNc4cccc5c4C(=O)N(C4CCC(=O)NC4=O)C5=O)CCO3)cc2)cc1NC(=O)c1coc(-c2ccnc(NCC(F)(F)F)c2)n1 (stereo not shown) [I-151]
6 | B (>20-50% degradation) |  |  |  | NC(=O)c1nn(-c2ccc(C(=O)NCCOCCOCCNc3cccc4c3C(=O)N(C3CCC(=O)NC3=O)C4=O)cc2)cc1NC(=O)c1cccc(-c2ccnc(NCC(F)(F)F)c2)n1 (stereo not shown) [I-137]
7 |  | C (<20% degradation) | A (>50% degradation) | B (>20-50% degradation) | NC(=O)c1nn(-c2ccc(CNCCOCCCc3cccc4c3CN(C3CCC(=O)NC3=O)C4=O)cc2)cc1NC(=O)c1coc(-c2ccnc(NCC(F)(F)F)c2)n1 (stereo not shown) [I-318]
8 |  | C (<20% degradation) | C (<20% degradation) | C (<20% degradation) | O=C1CCC(N2C(=O)c3ccc(CCCNCc4ccc(-n5cc(NC(=O)c6coc(-c7ccncc7)n6)c(C(F)F)n5)cc4)cc3C2=O)C(=O)N1 (stereo not shown) [I-380]
9 |  | B (>20-50% degradation) | A (>50% degradation) | A (>50% degradation) | Cn1c(=O)n(C2CCC(=O)NC2=O)c2ccc(CCCOCCOCCNC(=O)c3ccc(-n4cc(NC(=O)c5coc(-c6ccnc(NCC(F)(F)F)c6)n5)c(C(N)=O)n4)cc3)cc21 (stereo not shown) [I-248]
10 |  | C (<20% degradation) | C (<20% degradation) | B (>20-50% degradation) | NC(=O)c1nn(-c2ccc(CNCCCCCCCCCc3cccc4c3C(=O)N(C3CCC(=O)NC3=O)C4=O)cc2)cc1NC(=O)c1coc(-c2ccnc(NCC3CC3)c2)n1 (stereo not shown) [I-317]
11 |  | B (>20-50% degradation) | B (>20-50% degradation) | B (>20-50% degradation) | NC(=O)c1nn(-c2ccc(C(=O)NCCOCCOCCNc3cccc4c3C(=O)N(C3CCC(=O)NC3=O)C4=O)cc2)cc1NC(=O)c1coc(-c2ccnc(C3CC3)c2)n1 (stereo not shown) [I-424]
12 | C (<20% degradation) |  |  |  | Cc1ncsc1-c1ccc(CNC(=O)[C@@H]2C[C@@H](O)CN2C(=O)[C@@H](NC(=O)COCCCCCCCCNC(=O)c2ccc(-n3cc(NC(=O)c4coc(-c5ccnc(NCC(F)(F)F)c5)n4)c(C(N)=O)n3)cc2)C(C)(C)C)cc1 [I-125, N-[3-carbamoyl-1-[4-[8-[2-[[(1S)-1-[(2S,4R)-4-hydroxy-2-[[4-(4-methylthiazol-5-yl)phenyl]methylcarbamoyl]pyrrolidine-1-carbonyl]-2,2-dimethyl-propyl]amino]-2-oxo-ethoxy]octylcarbamoyl]phenyl]pyrazol-4-yl]-2-[2-(2,2,2-trifluoroethylamino)-4-pyridyl]oxazole-4-carboxamide]
13 | C (<20% degradation) |  |  |  | N#Cc1ccc2ncc(-c3cccc(NC4CCN(CCOCCOCCOCCOCCOCCNc5cccc6c5C(=O)N(C5CCC(=O)NC5=O)C6=O)C4)n3)n2c1 (stereo not shown) [I-208]
14 | C (<20% degradation) |  |  |  | N#Cc1cnc2c(cnn2-c2cc(NC3CC3)c(C(=O)NCC(F)COCCOCCOCCOCCNc3cccc4c3C(=O)N(C3CCC(=O)NC3=O)C4=O)cn2)c1 (stereo not shown) [I-72]
15 |  | B (>20-50% degradation) | B (>20-50% degradation) | B (>20-50% degradation) | CN(CCCc1ccc2c(c1)C(=O)N(C1CCC(=O)NC1=O)C2=O)Cc1ccc(-n2cc(NC(=O)c3coc(-c4ccnc(NCC5CC5)c4)n3)c(C(F)F)n2)cc1 (stereo not shown) [I-369]
16 | C (<20% degradation) |  |  |  | N#Cc1cnc2c(cnn2-c2cc(NC3CC3)c(C(=O)N[C@H]3CC[C@H](C(=O)NCCOCCNCCOCCOCCNc4cccc5c4C(=O)N(C4CCC(=O)NC4=O)C5=O)CC3)cn2)c1 (stereo partly drawn) [I-45, 6-(5-cyano-1H-pyrazolo[3,4-b]pyridin-1-yl)-4-(cyclopropylamino)-N-((1R,4R)-4-((14-((2-(2,6-dioxopiperidin-3-yl)-1,3-dioxoisoindolin-4-yl)amino)-3,9,12-trioxa-6-azatetradecyl)carbamoyl)cyclohexyl)nicotinamide]
17 | C (<20% degradation) |  |  |  | Cc1ncsc1-c1ccc(CNC(=O)[C@@H]2C[C@@H](O)CN2C(=O)[C@@H](NC(=O)COCCOCCOCCOCCOCCNC(=O)C(F)CNC(=O)c2cnc(Nc3ccc4cnccc4n3)cc2NC2CC2)C(C)(C)C)cc1 (stereo partly shown) [I-207]
18 | C (<20% degradation) |  |  |  | O=C(COc1cccc2c1C(=O)N(C1CCC(=O)NC1=O)C2=O)NCCCCNC(=O)[C@H]1CC[C@H](NC(=O)c2cnc(Nc3ccc4cnccc4n3)cc2NC2CC2)CC1 (stereo partly shown) [I-9]
19 | C (<20% degradation) |  |  |  | CC(CNc1cccc2c1C(=O)N(C1CCC(=O)NC1=O)C2=O)OCCOCCOCC(F)CNC(=O)c1cnc(Nc2ccc3cnccc3n2)cc1NC1CC1 (stereo not shown) [I-93, 4-(Cyclopropylamino)-N-[3-[2-[2-[2-[[2-(2,6-dioxo-3-piperidyl)-1,3-dioxo-isoindolin-4-yl]amino]-1-methyl-ethoxy]ethoxy]ethoxy]-2-fluoro-propyl]-6-(1,6-naphthyridin-2-ylamino)pyridine-3-carboxamide]
20 | A (>50% degradation) |  |  |  | NC(=O)c1nn(-c2ccc(COCCOCCOCCNc3cccc4c3C(=O)N(C3CCC(=O)NC3=O)C4=O)cc2)cc1NC(=O)c1coc(-c2ccnc(NCC(F)(F)F)c2)n1 (stereo not shown) [I-92, N-[3-carbamoyl-1-[4-[2-[2-[2-[[2-(2,6-dioxo-3-piperidyl)-1,3-dioxo-isoindolin-4-yl]amino]ethoxy]ethoxy]ethoxymethyl]phenyl]pyrazol-4-yl]-2-[2-(2,2,2-trifluoroethylamino)-4-pyridyl]oxazole-4-carboxamide]
21 |  | C (<20% degradation) | C (<20% degradation) | C (<20% degradation) | CN(CCCc1cccc2c1C(=O)N(C1CCC(=O)NC1=O)C2=O)Cc1ccc(-n2cc(NC(=O)c3coc(-c4ccncc4)n3)c(C(F)F)n2)cc1 (stereo not shown) [I-365]
22 | C (<20% degradation) |  |  |  | CC[C@@H]1[C@H](F)C(=O)N[C@@H]1COc1nccc2cc(C(=O)NCCOCCOCCOCCOCCNc3cccc4c3C(=O)N(C3CCC(=O)NC3=O)C4=O)c(OC)cc12 (stereo partly shown) [I-78]
23 | C (<20% degradation) |  |  |  | O=C1CCC(N2C(=O)c3cccc(NCCOCc4ccc(COCCNC(=O)[C@H]5CC[C@H](NC(=O)c6cnc(Nc7ccc8cnccc8n7)cc6NC6CC6)CC5)nc4)c3C2=O)C(=O)N1 (stereo partly shown) [I-41, 6-((1,6-naphthyridin-2-yl)amino)-4-(cyclopropylamino)-N-((1r,4r)-4-((2-((5-((2-((2-(2,6-dioxopiperidin-3-yl)-1,3-dioxoisoindolin-4-yl)amino)ethoxy)methyl)pyridin-2-yl)methoxy)ethyl)carbamoyl)cyclohexyl)nicotinamide]
24 | C (<20% degradation) |  |  |  | N#Cc1cnc2c(cnn2-c2cc(NC3CC3)c(C(=O)N[C@H]3C[C@H](C(=O)NCCOCCOCCNc4cccc5c4C(=O)N(C4CCC(=O)NC4=O)C5=O)C3)cn2)c1 (stereo partly drawn) [I-27, 6-(5-cyano-1H-pyrazolo[3,4-b]pyridin-1-yl)-4-(cyclopropylamino)-N-((1R,3R)-3-((2-(2-(2-((2-(2,6-dioxopiperidin-3-yl)-1,3-dioxoisoindolin-4-yl)amino)ethoxy)ethoxy)ethyl)carbamoyl)cyclobutyl)nicotinamide]
25 |  | B (>20-50% degradation) | B (>20-50% degradation) | A (>50% degradation) | O=C1CCC(N2C(=O)c3cccc(CCCNCCCCCNC(=O)c4ccc(-n5cc(NC(=O)c6coc(-c7ccnc(NCC8CC8)c7)n6)c(C(F)(F)F)n5)cc4)c3C2=O)C(=O)N1 (stereo not shown) [I-221]
